Test results from PMC8791557 (Environment international, 2021).
Like-named read-outs stand apart in the source and are kept apart here.

Tests used:
[1] = format: in vivo, human; conditions: for Tmax of metabolite: median; for k1e / k12 / k21 / ka / α / β: two-compartmental model
[2] = human, in vivo; cited from earlier work
[3] = metabolite in plasma after 25 ng [14C]-BaP oral
[4] = metabolite in plasma after 50 ng [14C]-BaP oral
[5] = metabolite in plasma after 100 ng [14C]-BaP oral
[6] = metabolite in plasma after 250 ng [14C]-BaP oral
[7] = 50 ng [14C]-BaP oral, mean ± SD
[8] = 100 ng [14C]-BaP oral, mean ± SD
[9] = 250 ng [14C]-BaP oral, mean ± SD

Oc1ccc2cc3ccc4cccc5ccc(c2c1)c3c45 [9-OH, 9 - OH BaP]
Tmax of metabolite [1, 3]: 0.5 h
Tmax of metabolite [1, 4]: 1.0 h
Tmax of metabolite [1, 5]: 1.0 h
Tmax of metabolite [1, 6]: 0.75 h

c1ccc2c(c1)cc1ccc3cccc4ccc2c1c34 [[^14C]-BaP, Benzo[a]pyrene]
k1e ([1]; 25 ng [14C]-BaP oral, n = 1): 0.0068 NA 1/h
k12 ([1]; 25 ng [14C]-BaP oral, n = 1): 0.331 NA 1/h
k21 ([1]; 25 ng [14C]-BaP oral, n = 1): 0.028 NA 1/h
ka ([1]; 25 ng [14C]-BaP oral, n = 1): 592 NA 1/h
α ([1]; 25 ng [14C]-BaP oral, n = 1): 0.366 NA 1/h
β ([1]; 25 ng [14C]-BaP oral, n = 1): 5.03 × 10^−4 NA 1/h
k1e [1, 7]: 0.694 ± 0.412 n = 5 1/h
k12 [1, 7]: 0.83 ± 1.11 n = 5 1/h
k21 [1, 7]: 0.270 ± 0.253 n = 5 1/h
ka [1, 7]: 1.30 × 10^7 ± 2.90 × 10^7 n = 5 1/h
α [1, 7]: 1.69 ± 0.89 n = 5 1/h
β [1, 7]: 0.105 ± 0.164 n = 5 1/h
k1e [1, 8]: 0.558 ± 0.897 n = 6 1/h
k12 [1, 8]: 2.60 ± 3.45 n = 6 1/h
k21 [1, 8]: 0.190 ± 0.180 n = 6 1/h
ka [1, 8]: 3.52 ± 4.75 n = 6 1/h
α [1, 8]: 3.33 ± 4.28 n = 6 1/h
β [1, 8]: 0.020 ± 0.021 n = 6 1/h
k1e [1, 9]: 1.25 ± 1.71 n = 7 1/h
k12 [1, 9]: 4.27 ± 6.92 n = 7 1/h
k21 [1, 9]: 0.290 ± 0.564 n = 7 1/h
ka [1, 9]: 43.2 ± 111 n = 7 1/h
α [1, 9]: 5.80 ± 6.64 n = 7 1/h
β [1, 9]: 0.014 ± 0.019 n = 7 1/h
increase of compartmental model apparent volume of distribution ([1]; both, human, in vivo): 4.6 ×
increase of mean non-compartmental apparent volume of distribution ([1]; both, human, in vivo): 15 ×
Tmax ([1]; both, human, in vivo, Tmax): 0.5 to 1 h
half-life ([1]; both, human, in vivo, average half-life across doses): 46.5 ± 58.2 h
Tmax ([1]; both, human, in vivo, median Tmax): 0.5 h
Tmax ([1]; both, human, in vivo, po, Tmax (Median)): 0.5 h
Tmax ([1]; both, human, in vivo, po, Tmax (Range)): 0.5 to 4 h
Tmax ([1]; both, human, in vivo, po, median Tmax): 0.5 h
half-life ([1]; both, human, in vivo, po, α half-life): 0.484 ± 0.187 h
AUC0–48h, range of dose-group means ([1]; human, in vivo): 12.2 ± 14.5 to 88.5 ± 14.1
Cmax, range of dose-group means ([1]; human, in vivo): 2.51 ± 2.53 to 13.8 ± 9.52
Clearance ([1]; human, in vivo, po): 811 n = 1 L/h
half-life ([1]; human, in vivo, po, Half-life): 4.31 h
half-life ([1]; human, in vivo, po, α half-life): 1.89 h
half-life ([1]; human, in vivo, po, β half-life): 1310 h
Tmax [2]: 0.75 to 1.0 h

Oc1ccc2ccc3c4ccccc4cc4ccc1c2c43 [3-OH, 3 - OH BaP]
Tmax of metabolite [1, 3]: 1.0 h
Tmax of metabolite [1, 4]: 1.25 h
Tmax of metabolite [1, 5]: 1.0 h
Tmax of metabolite [1, 6]: 1.5 h
